Test system: NALM 6 cells
Experiment: Light scatter analysis of morphological response of NALM 6 cells
Assay type: cell-based, human
Description: FIG. 2, Panels A and B. Methionine-enkephalin induces a morphological change in NALM 6 cells. […] Analysis of forward and right angle light scatter was performed using a Becton Dickinson FACS SCAN flow cytometer as described (Sklar et al., 1984). Histograms of light scatter were obtained by analyzing 10,000 cells per sample. Data are expressed as mean channel number (y-axis) vs concentration of MET-ENK (x-axis).
Forward and right angle light scatter analysis of the morphological response to MET-ENK: The effect of MET-ENK on cell morphology were measured using flow cytometric analysis of forward and right angle light scatter as previously described (Sklar et al., 1984). For these studies 10^6 cells were resuspended in one-ml of PBS, activated by the addition of MET-ENK or maintained in the PBS buffer alone, and then, incubated for 5 minutes at 37° C. […] Samples were analyzed on a Becton Dickinson FACS SCAN flow cytometer with excitation at 488 nm (Sklar et al., 1984). Histograms of light scattering were obtained by analyzing 10,000 cells for each sample. Data analysis was performed using the Lysys System software package.

SMILES: CSCC[C@H](NC(=O)[C@H](Cc1ccccc1)NC(=O)CNC(=O)CNC(=O)[C@@H](N)Cc1ccc(O)cc1)C(=O)O [MET-ENK, Tyr-Gly-Gly-Phe-Met]
- morphological response (light scatter) of NALM 6 cells (5 minutes at 37° C.): increase in light scatter (right angle and forward)
- lowest MET-ENK concentration causing morphological response (NALM 6): 0.01 nM
- time of exposure for morphological response (NALM 6): ≤ 5 minutes

From patent US5753516A, “Screening method for ligands of the EBI-1 receptor” (priority 1995, dated 1998)
